Experiment in all cases: ≥ marks a high value that may be exact or a test limit, other limits are often not marked, values filed in µg/mL are converted to µM
Assay [1] relates to Pseudomonas aeruginosa ATCC 27853.
The subject of assay [2] is Escherichia coli DH5alpha.
Assay [3] relates to Staphylococcus aureus ATCC 25923.
The next assay deals with Bacillus subtilis.
For the next assay, the system named is Klebsiella pneumoniae.
Assay [4] relates to Salmonella enterica subsp. enterica serovar Typhimurium ATCC 14028.
Assay [5] has as its system Escherichia coli ATCC 25922.
Assay [6] deals with Candida albicans ATCC 90028.
Assay [7] relates to Staphylococcus aureus NCTC 8325.
Assay [8] concerns Staphylococcus epidermidis ATCC 12228.
Assay [9] has as its system Klebsiella pneumoniae ATCC 700603.
Assay [10] has as its system Bacillus subtilis ATCC 6633.

Each structure is given as a SMILES string. Values after ≈ are worked out from the molar mass of the structure shown.

By MIC is commonly meant the lowest concentration that inhibits growth of the organism. As for `CC[C@H](C)[C@H](NC(=O)[C@H](Cc1ccccc1)NC(=O)[C@@H](NC(=O)[C@H](CC(C)C)NC(=O)[C@H](CCCN=C(N)N)NC(=O)[C@H](CCCCN)NC(=O)[C@H](CCCN=C(N)N)NC(=O)[C@H](CCCCN)NC(=O)[C@H](CC(C)C)NC(=O)[C@H](CC(C)C)NC(=O)[C@@H](NC(=O)[C@@H](N)Cc1ccc(O)cc1)C(C)C)[C@@H](C)CC)C(=O)O` [YVLLKRKRLIFI], the MIC in assay [1] is greater than 200 µM; in assay [2], no less than 50 µM; in [3], greater than 200 µM; in the assay with Bacillus subtilis it was no less than 200 µM.
`CC[C@H](C)[C@H](NC(=O)[C@H](Cc1ccc(O)cc1)NC(=O)[C@@H](NC(=O)[C@@H]1CCCN1C(=O)[C@H](CCCN=C(N)N)NC(=O)[C@H](CC(N)=O)NC(=O)[C@H](CC(N)=O)NC(=O)CN)C(C)C)C(=O)N1CCC[C@H]1C(=O)N[C@@H](CCC(N)=O)C(=O)N1CCC[C@H]1C(=O)N[C@@H](CCCN=C(N)N)C(=O)N1CCC[C@H]1C(=O)N[C@@H](Cc1cnc[nH]1)C(=O)N1CCC[C@H]1C(=O)N[C@@H](CCCN=C(N)N)C(=O)N[C@@H](CC(C)C)C(=O)O` [GNNRPVYIPQPRPHPRL]: the MIC in the assay with Klebsiella pneumoniae was greater than 128 µM; in assay [4], greater than 128 µM; in [5] it was 128 µM (≈ 257 µg/mL).
For `CC[C@H](C)[C@H](NC(=O)[C@H](CC(C)C)NC(=O)[C@H](CC(=O)O)NC(=O)[C@H](CO)NC(=O)[C@@H](NC(=O)[C@H](C)NC(=O)[C@H](CCCCN)NC(=O)[C@@H](NC(=O)[C@H](CCCCN)NC(=O)[C@H](Cc1cnc[nH]1)NC(=O)[C@@H]1CCCN1C(=O)[C@@H](NC(=O)[C@H](CC(C)C)NC(=O)[C@@H]1CCCN1C(=O)CNC(=O)[C@@H](NC(=O)[C@H](Cc1ccc(O)cc1)NC(=O)[C@H](CCCCN)NC(=O)[C@H](CCSC)NC(=O)[C@H](Cc1ccccc1)NC(=O)CN)[C@@H](C)CC)[C@@H](C)CC)C(C)C)[C@@H](C)CC)C(N)=O` [GFMKYIGPLIPHKVKAISDLI], the MIC is no less than 200 µM in [6], 100 µM (≈ 234 µg/mL) in assay [5] and no less than 200 µM in assay [7].
Regarding `CC(=O)N[C@@H](Cc1ccccc1)C(=O)N[C@@H](CCCCN)C(=O)N[C@@H](CCCCN)C(=O)N[C@@H](CC(C)C)C(=O)N[C@@H](CCCCN)C(=O)N[C@@H](CCCCN)C(=O)N[C@@H](CC(C)C)C(=O)N[C@@H](Cc1ccccc1)C(=O)N[C@@H](CO)C(=O)N[C@@H](CCCCN)C(=O)N[C@@H](CC(C)C)C(=O)N[C@@H](CCCCN)C(=O)N[C@@H](CC(N)=O)C(=O)N[C@@H](Cc1c[nH]c2ccccc12)C(=O)N[C@@H](Cc1c[nH]c2ccccc12)C(N)=O` [FKKLKKLFSKLKNWW], the MIC in assay [1] is 3.2 µM (≈ 6.51 µg/mL); in assay [8] it was 1.6 µM (≈ 3.26 µg/mL); in assay [3], 3.2 µM (≈ 6.51 µg/mL); in assay [9] it was 3.2 µM (≈ 6.51 µg/mL); in assay [10], 1.6 µM (≈ 3.26 µg/mL); in [5] it was 1.6 µM (≈ 3.26 µg/mL).
Turning to `CC[C@H](C)[C@@H]1NC(=O)[C@H](C)NC(=O)[C@@H](NC(=O)[C@H](Cc2ccccc2)NC(=O)[C@@H](NC(=O)[C@H](CCCCN)NC(=O)[C@@H]2CCCN2C(=O)[C@H](Cc2ccccc2)NC(=O)[C@@H](NC(=O)[C@H](CCCCN)NC(=O)[C@H](C)NC(=O)[C@H](C)NC(=O)[C@@H](NC(=O)CNC(=O)[C@H](C)NC(=O)[C@@H](NC(=O)[C@@H](NC(=O)[C@@H]2CCCN2C(=O)[C@H](CC(C)C)NC(=O)[C@@H](N)Cc2ccccc2)[C@@H](C)CC)[C@@H](C)CC)C(C)C)C(C)C)[C@@H](C)CC)CSSC[C@@H](C(=O)O)NC(=O)[C@H](CCCCN)NC(=O)[C@H](CCCCN)NC(=O)[C@H](CO)NC1=O` [FLPIIAGVAAKVFPKIFCAISKKC], the MIC in assay [6] is 5 µM (≈ 12.8 µg/mL); in [5] it was 14 µM (≈ 35.9 µg/mL); in assay [7] it was 7 µM (≈ 17.9 µg/mL).

These data come from DBAASP.
